Experiment [1] deals with T1, FL hMALT1 enzyme (Homo sapiens, UniProt Q9UDY8).
T1 sequence (Q9UDY8 1-824): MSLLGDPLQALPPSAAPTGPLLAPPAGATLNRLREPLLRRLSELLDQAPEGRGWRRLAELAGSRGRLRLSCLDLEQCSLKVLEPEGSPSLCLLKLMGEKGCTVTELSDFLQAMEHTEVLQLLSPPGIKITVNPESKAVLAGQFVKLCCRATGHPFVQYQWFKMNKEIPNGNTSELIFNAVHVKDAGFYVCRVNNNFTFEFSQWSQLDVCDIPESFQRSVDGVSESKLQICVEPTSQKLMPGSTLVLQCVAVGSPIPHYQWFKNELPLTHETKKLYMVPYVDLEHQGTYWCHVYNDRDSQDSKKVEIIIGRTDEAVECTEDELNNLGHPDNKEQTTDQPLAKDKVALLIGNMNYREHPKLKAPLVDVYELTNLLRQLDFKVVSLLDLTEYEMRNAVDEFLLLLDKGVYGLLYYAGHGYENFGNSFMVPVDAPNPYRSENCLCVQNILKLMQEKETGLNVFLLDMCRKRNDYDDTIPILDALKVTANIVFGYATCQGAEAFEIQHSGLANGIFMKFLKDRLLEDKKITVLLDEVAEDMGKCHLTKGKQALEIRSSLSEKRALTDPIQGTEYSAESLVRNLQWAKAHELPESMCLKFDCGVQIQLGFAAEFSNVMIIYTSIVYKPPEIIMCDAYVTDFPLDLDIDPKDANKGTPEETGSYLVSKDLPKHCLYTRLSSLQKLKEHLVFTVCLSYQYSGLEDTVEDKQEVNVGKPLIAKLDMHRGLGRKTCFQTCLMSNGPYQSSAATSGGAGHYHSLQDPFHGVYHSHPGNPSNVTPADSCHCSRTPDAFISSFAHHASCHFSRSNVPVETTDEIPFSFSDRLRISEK

In experiment [2] the test system is IL-2 release from stimulated Jurkat cells. The experiment can be described thus: Human IL-2 Release Phenotypic Assay (Assay 3). Format: cell-based. The note with it: Jurkat cells (clone E6-1), 200 ng/mL PMA + 300 ng/mL ionomycin, IL-2 by ELISA. The gist of the method: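 Jurkat E6-1 cells in RPMI1640/10% FBS were seeded at 50 000 cells/well and incubated overnight at 37° C. Half-log compound dilutions (0.5% final DMSO) were added for 30 min, then cells were stimulated with 200 ng/mL PMA + 300 ng/mL ionomycin for 48 h. IC50 came from a 4-parameter non-linear regression fit.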
On the technique in general: ELISA stands for enzyme-linked immunosorbent assay.

Experiment [3] addresses T1, FL hMALT1 enzyme. As to the kind of experiment: biochemical.
For experiment [4], the target named is T2, MALT1-GS-Ub (6-His-hMALT-1 residues 339-715 fused to ubiquitin) (Homo sapiens, UniProt Q9UDY8).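 Note: in vitro MALT1 protease assay: enzyme preincubated with compound 30 min at room temperature, then cleavage of fluorogenic Ac-LVSR-AMC substrate (100 µM) followed by fluorescence every 15 min.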
T2 sequence (Q9UDY8 with tags, fused parts or gaps limits assumed): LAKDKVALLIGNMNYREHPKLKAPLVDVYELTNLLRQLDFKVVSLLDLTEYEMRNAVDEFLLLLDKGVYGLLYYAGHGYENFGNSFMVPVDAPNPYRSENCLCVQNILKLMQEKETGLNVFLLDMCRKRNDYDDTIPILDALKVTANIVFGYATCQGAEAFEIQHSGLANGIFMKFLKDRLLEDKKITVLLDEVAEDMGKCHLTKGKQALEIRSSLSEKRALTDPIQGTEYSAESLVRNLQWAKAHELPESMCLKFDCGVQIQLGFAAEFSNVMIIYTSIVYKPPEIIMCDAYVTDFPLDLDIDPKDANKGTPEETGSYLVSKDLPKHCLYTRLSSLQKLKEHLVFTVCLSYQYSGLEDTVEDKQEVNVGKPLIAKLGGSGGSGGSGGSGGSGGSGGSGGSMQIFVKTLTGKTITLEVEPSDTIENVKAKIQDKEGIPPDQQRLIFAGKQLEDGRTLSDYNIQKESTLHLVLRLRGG
Experiment [5] addresses T2, MALT1-GS-Ub (6-His-hMALT-1 residues 339-715 fused to ubiquitin). The experiment can be described thus: biochemical.

Where a name gives a salt, the structure may show the parent alone. Read-outs that look alike come from different tables or passages of the source.

With `CC(=O)NC12CC(C(=O)N(C)[C@@H](c3ccc(N[C@H]4Cc5ccccc5C4(C)C)cn3)C(F)(F)F)(C1)C2` [Example 179, 3-Acetamido-N—((S)-1-(5-(((S)-1,1-dimethyl-2,3-dihydro-1H-inden-2-yl)amino)pyridin-2-yl)-2,2,2-trifluoroethyl)-N-methylbicyclo[1.1.1]pentane-1-carboxamide], the half-inhibitory concentration (IC50) on FL hMALT1 enzyme [1] was 88 nM; in experiment [2] (Homo sapiens, Jurkat, 48 h), 470 nM.
Turning to `CN(C(=O)C1CCS(=O)(=O)CC1)[C@@H](c1ccc(NC2Cc3ccccc3C2(C)C)cc1)C(F)(F)F` (single isomer, unassigned) [Example 2], the IC50 against FL hMALT1 enzyme [3] was found to be 50 nM; in experiment [4], 140 nM; in experiment [2] (48 hours), 620 nM.
Take `CC(=O)NCCC(=O)N(C)[C@@H](c1ccc(NC2Cc3ccccc3C2(C)C)cc1)C(F)(F)F` (single isomer, unassigned) [Example 25]: the figures for the IC50 (on FL hMALT1 enzyme [3]; in experiment [4]; in experiment [2] (48 hours)) were 27 nM, 160 nM and 61 nM, respectively.
Take `CN(C(=O)C1CCNCC1)[C@@H](c1ccc(NC2Cc3ccccc3C2)cc1)C(F)(F)F` (single isomer, unassigned) [Example 70]: the IC50 in experiment [5] came to 430 nM; against FL hMALT1 enzyme [3] it was 810 nM; in experiment [2] (Homo sapiens, Jurkat, 48 h), 3500 nM.
For the compound `CN(C(=O)N1CCOCC1)[C@@H](c1ccc(N[C@H]2Cc3ccccc3C2(C)C)cc1)C(F)(F)F` (single isomer, unassigned) [Example 12], the half-maximal inhibitory concentration (IC50) came to 180 nM in experiment [5]; 290 nM on FL hMALT1 enzyme [3]; 490 nM in experiment [2] (Homo sapiens, Jurkat, 48 h).
Turning to `CNC(=O)N1CC(C(=O)N(C)[C@@H](c2ccc(NC3Cc4ccccc4C3(C)C)cc2)C(F)(F)F)C1` (single isomer, unassigned) [Example 73], the IC50 in experiment [5] came to 420 nM; against FL hMALT1 enzyme [3], 7 nM; in experiment [2] (48 hours), 370 nM.
Turning to `CN(C(=O)C1CCS(=O)(=O)CC1)[C@@H](c1ccc(NC2Cc3ccccc3C2(C)C)cn1)C(F)(F)F` (single isomer, unassigned) [Example 77], the concentration for half-maximal inhibition (IC50) in experiment [5] came out at 310 nM; at FL hMALT1 enzyme [3], 68 nM; in experiment [2] (48 hours) it was 920 nM.
`CN(C(=O)N1CCC(O)CC1)[C@@H](c1ccc(NC2Cc3ccccc3C2(C)C)cc1)C(F)(F)F` (single isomer, unassigned) [Example 23]: the IC50 amounted to 390 nM in experiment [5], 330 nM against FL hMALT1 enzyme [3] and 1080 nM in experiment [2] (48 hours).
Taken in the same sequence, the figures for `CN(C(=O)CN1CCCC1=O)[C@@H](c1ccc(NC2Cc3ccccc3C2(C)C)cc1)C(F)(F)F` (single isomer, unassigned) [Example 46] were 250 nM, 66 nM and 440 nM.
For `CN(C(=O)c1cnco1)[C@@H](c1ccc(NC2Cc3ccccc3C2(C)C)cc1)C(F)(F)F` (single isomer, unassigned) [Example 4], the concentration for half-maximal inhibition (IC50) is 34 nM at FL hMALT1 enzyme [3], 140 nM in experiment [4] and 69 nM in experiment [2] (48 hours).
As for `COCCC(=O)N(C)[C@@H](c1ccc(NC2Cc3ccccc3C2(C)C)cc1)C(F)(F)F` (single isomer, unassigned) [Example 32], the figures for the IC50 (in experiment [5]; against FL hMALT1 enzyme [3]; in experiment [2] (48 hours)) were 200 nM, 130 nM and 5680 nM, respectively.
With `CN(C(=O)C1CNC1)[C@@H](c1ccc(NC2Cc3ccccc3C2(C)C)cc1)C(F)(F)F` (stereo partly drawn) [Example 72, N-((1S)-1-(4-((1,1-Dimethyl-2,3-dihydro-1H-inden-2-yl)amino)phenyl)-2,2,2-trifluoroethyl)-N-methylazetidine-3-carboxamide Hydrochloride], the IC50 in experiment [5] is 270 nM; against FL hMALT1 enzyme [3] it was 220 nM; in experiment [2] (Homo sapiens, Jurkat, 48 h), 520 nM.
For `CN(C(=O)N1CCS(=O)(=O)CC1)[C@@H](c1ccc(NC2Cc3ccccc3C2(C)C)cc1)C(F)(F)F` (single isomer, unassigned) [Example 15], the values for the half-inhibitory concentration (IC50) (in experiment [5]; on FL hMALT1 enzyme [3]; in experiment [2] (48 hours)) were 290 nM, 420 nM and 3100 nM, respectively.
For the compound `CNC(=O)N1CC(C(=O)N(C)[C@@H](c2ccc(NC3Cc4ccccc4C3(C)C)cc2)C(F)(F)F)C1` (single isomer, unassigned) [Example 74], the values for the IC50 (in experiment [5]; at FL hMALT1 enzyme [3]; in experiment [2] (48 hours)) were 320 nM, 18 nM and 180 nM, respectively.
Taken in the same sequence, the figures for `CN(C(=O)N1CCS(=O)(=O)CC1)[C@@H](c1ccc(NC2Cc3ccccc3C2(C)C)cc1)C(F)(F)F` (single isomer, unassigned) [Example 14] were 220 nM, 110 nM and 320 nM.
As to `CN(C(=O)N1CCC(O)CC1)[C@@H](c1ccc(NC2Cc3ccccc3C2(C)C)cc1)C(F)(F)F` (single isomer, unassigned) [Example 22], the IC50 in experiment [5] came to 290 nM; against FL hMALT1 enzyme [3], 450 nM; in experiment [2] (Homo sapiens, Jurkat, 48 h) it was 1730 nM.
With `CNS(=O)(=O)CCCC(=O)N(C)[C@@H](c1ccc(NC2Cc3ccccc3C2(C)C)cc1)C(F)(F)F` (single isomer, unassigned) [Example 64], the IC50 in experiment [5] was 150 nM; on FL hMALT1 enzyme [3] it was 12 nM; in experiment [2] (48 hours) it was 290 nM.
For the compound `CN(C(=O)C1CNC1)C(c1ccc(NC2Cc3ccccc3C2(C)C)cn1)C(F)(F)F` (single isomer, unassigned) [Example 84, N-(1-(5-((1,1-Dimethyl-2,3-dihydro-1H-inden-2-yl)amino)pyridin-2-yl)-2,2,2-trifluoroethyl)-N-methylazetidine-3-carboxamide], the IC50 came out at 320 nM in experiment [5], 180 nM on FL hMALT1 enzyme [3] and 640 nM in experiment [2] (48 hours).
For `CC(=O)N1CC(F)(C(=O)N(C)[C@@H](c2ccc(NC3Cc4ccccc4C3(C)C)cc2)C(F)(F)F)C1` (single isomer, unassigned) [Example 43], the IC50 in experiment [5] came to 150 nM; at FL hMALT1 enzyme [3], 62 nM; in experiment [2] (48 hours) it was 4040 nM.
Consider `CC1(C)c2ccccc2CC1Nc1ccc([C@H](NC(=O)C2CCS(=O)(=O)CC2)C(F)(F)F)cc1` (single isomer, unassigned) [Example 82], for which the IC50 in experiment [5] is 470 nM; against FL hMALT1 enzyme [3] it was 460 nM; in experiment [2] (48 hours) it was 2990 nM.
As to `CN(C(=O)c1cc[nH]c(=O)c1)[C@@H](c1ccc(NC2Cc3ccccc3C2(C)C)cc1)C(F)(F)F` (single isomer, unassigned) [Example 21], the results for the IC50 (in experiment [5]; against FL hMALT1 enzyme [3]; in experiment [2] (48 hours)) were 200 nM, 62 nM and 260 nM, respectively.
Regarding `CN(C(=O)c1cocn1)[C@@H](c1ccc(NC2Cc3ccccc3C2(C)C)cc1)C(F)(F)F` (single isomer, unassigned) [Example 27], the half-inhibitory concentration (IC50) in experiment [5] stood at 190 nM; against FL hMALT1 enzyme [3], 180 nM; in experiment [2] (48 hours), 400 nM.
Taken in the same sequence, the figures for `COCCC(=O)N(C)[C@@H](c1ccc(NC2Cc3ccccc3C2(C)C)cc1)C(F)(F)F` (single isomer, unassigned) [Example 33] were 360 nM, 260 nM and 2480 nM.
For the compound `CC(=O)N1CC(C)(C(=O)N(C)[C@@H](c2ccc(NC3Cc4ccccc4C3(C)C)cc2)C(F)(F)F)C1` (single isomer, unassigned) [Example 41], the half-maximal inhibitory concentration (IC50) in experiment [5] is 220 nM; on FL hMALT1 enzyme [3], 19 nM; in experiment [2] (Homo sapiens, Jurkat, 48 h) it was 1040 nM.
As to `CN1CC(C(=O)N(C)[C@@H](c2ccc(NC3Cc4ccccc4C3(C)C)cc2)C(F)(F)F)C1` (single isomer, unassigned) [Example 75], the half-inhibitory concentration (IC50) in experiment [5] amounted to 250 nM; at FL hMALT1 enzyme [3] it was 370 nM; in experiment [2] (Homo sapiens, Jurkat, 48 h) it was 820 nM.
As to `CC1c2ccccc2C(C)C1Nc1ccc([C@H](N(C)C(=O)C2CCS(=O)(=O)CC2)C(F)(F)F)cc1` (stereo partly drawn) [Example 38, N-((1S)-1-(4-((1,3-Dimethyl-2,3-dihydro-1H-inden-2-yl)amino)phenyl)-2,2,2-trifluoroethyl)-N-methyltetrahydro-2H-thiopyran-4-carboxamide 1,1-dioxide], the 50% inhibitory concentration (IC50) was 210 nM in experiment [5]; 16 nM on FL hMALT1 enzyme [3]; 560 nM in experiment [2] (Homo sapiens, Jurkat, 48 h).
Turning to `CN([C@@H](c1ccc(NC2Cc3ccccc3C2(C)C)cc1)C(F)(F)F)S(=O)(=O)C1CC1` (single isomer, unassigned) [Example 80], the half-maximal inhibitory concentration (IC50) in experiment [5] was 270 nM; against FL hMALT1 enzyme [3], 210 nM; in experiment [2] (48 hours) it was 2240 nM.

By IC50 is commonly meant the midpoint of a concentration-inhibition curve.
